This passage reports Kd and Ki results from patent US20260125375A1 (Pfizer Inc., priority 2022, published 2026).

Experiment [1] deals with T1, WT CBL-B (36-427) (Homo sapiens, UniProt Q13191).
T1 construct: N-terminal biotinylated WT CBL-B (36-427) and C-CBL (46-435) were captured on a streptavidin (SA) coated sensor chip
The experiment in a line: Surface Plasmon Resonance (SPR) assay, binding affinity and kinetics, CBL-B. The note with it: SPR at 10° C., biotinylated WT CBL-B (36-427) on streptavidin chip; geometric mean; read-out: CBL-B SPR Kd (nM) GMean. The procedure, abridged: (§1)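 SPR kinetics at 10° C, run either single-cycle (0.001–1 μM, 3-fold, 6 points, 120 s on, >5400 s off) or multi-cycle (10 points, 2-fold, top 10 or 100 μM, 90 s on). Proteins were N-biotinylated CBL-B (36-427) and C-CBL (46-435) on SA surfaces, in pH 7.2 HEPES, 2% DMSO.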

For experiment [2], the target named is T2, C-CBL (46-435) (Homo sapiens, UniProt P22681).
T2 construct: N-terminal biotinylated WT CBL-B (36-427) and C-CBL (46-435) were captured on a streptavidin (SA) coated sensor chip
T2 sequence (P22681 46-435): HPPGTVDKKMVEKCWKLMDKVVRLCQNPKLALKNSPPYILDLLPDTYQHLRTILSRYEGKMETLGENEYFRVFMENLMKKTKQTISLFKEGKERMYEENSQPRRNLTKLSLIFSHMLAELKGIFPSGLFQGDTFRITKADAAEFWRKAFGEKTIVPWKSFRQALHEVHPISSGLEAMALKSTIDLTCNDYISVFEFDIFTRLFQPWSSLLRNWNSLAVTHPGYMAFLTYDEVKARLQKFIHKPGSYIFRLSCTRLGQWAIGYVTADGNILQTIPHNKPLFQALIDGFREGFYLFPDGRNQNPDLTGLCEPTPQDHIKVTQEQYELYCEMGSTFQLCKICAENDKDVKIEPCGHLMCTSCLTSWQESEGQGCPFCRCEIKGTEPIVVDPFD
The experiment in a line: Surface Plasmon Resonance (SPR) assay, binding affinity and kinetics, C-CBL. Particulars: SPR at 10° C., biotinylated C-CBL (46-435) on streptavidin chip; geometric mean; read-out: C-CBL SPR Kd (nM) GMean. The procedure, abridged:
as §1

Experiment [3] addresses T3, C-CBL (residues 46-435) (Homo sapiens, UniProt P22681).
T3 construct: Purified CBL-B (residues 36-427) and C-CBL (residues 46-435) proteins from baculovirus-infected insect cells; made in house; host or cells: baculovirus-infected insect cells
T3 sequence (P22681 46-435): T2 sequence (P22681 46-435)
The experiment is described as follows: Ligand Displacement Assay (LDA), HTRF competitive binding against BODIPY-labeled fluorescent tracer, C-CBL. Particulars: geometric mean of the number of tests, read-out: C-CBL Ki (nM) GMean. The procedure, abridged:
(§2)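 Terbium-streptavidin donor on BirA-biotinylated, AviTagged protein from baculovirus-infected insect cells; BODIPY tracer as acceptor. Compound titrations were three-fold and duplicated, […] with 2% DMSO final.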
Background: TR-FRET usually uses a lanthanide donor and a delayed reading to cut background.

For experiment [4], the target named is T4, CBL-B (residues 36-427) (Homo sapiens, UniProt Q13191).
T4 construct: Purified CBL-B (residues 36-427) and C-CBL (residues 46-435) proteins from baculovirus-infected insect cells; made in house; host or cells: baculovirus-infected insect cells
The experiment in a line: Ligand Displacement Assay (LDA), HTRF competitive binding against BODIPY-labeled fluorescent tracer, CBL-B. The note with it: geometric mean of the number of tests, read-out: CBL-B Ki (nM) GMean. The procedure, abridged:
as §2

For `Cn1cnnc1[C@@H](c1cccc(-c2n[nH]c3c(CN4CC[C@H](F)C4)nc(C(F)(F)F)cc23)c1)C1CCC1` [Example C110, 3-{3-[(R)-cyclobutyl(4-methyl-4H-1,2,4-triazol-3-yl)methyl]phenyl}-7-{[(3S)-3-fluoropyrrolidin-1-yl]methyl}-5-(trifluoromethyl)-1H-pyrazolo[3,4-c]pyridine], the Kd in experiment [1] turned out to be 6.4 nM; in experiment [2] it was 300 nM. Moreover, the Ki in experiment [3] amounted to 464 nM; in experiment [4] it was 50 nM.

Turning to `Cn1cnnc1[C@@H](c1cccc(-c2n[nH]c3c(CN4C[C@@H](F)[C@H](F)C4)nc(C(F)(F)F)cc23)c1)C1CCC1` [Example C111, 3-{3-[(R)-cyclobutyl(4-methyl-4H-1,2,4-triazol-3-yl)methyl]phenyl}-7-{[(3R,4R)-3,4-difluoropyrrolidin-1-yl]methyl}-5-(trifluoromethyl)-1H-pyrazolo[3,4-c]pyridine], the Kd in experiment [1] amounted to 3.3 nM; in experiment [2], 282 nM. For the same molecule, the inhibition constant Ki came to 313 nM in experiment [3] and 26.9 nM in experiment [4].

As to `Cn1cnnc1[C@@H](c1cccc(-c2n[nH]c3c(CN4CCNC(=O)C4)nc(C(F)(F)F)cc23)c1)C1CCC1` [Example C112, 4-{[3-{3-[(R)-cyclobutyl(4-methyl-4H-1,2,4-triazol-3-yl)methyl]phenyl}-5-(trifluoromethyl)-1H-pyrazolo[3,4-c]pyridin-7-yl]methyl}piperazin-2-one], the Kd in experiment [1] worked out at 3 nM; in experiment [2], 82.1 nM. Also, the Ki was determined as 114 nM in experiment [3] and 15.4 nM in experiment [4].

With `C[C@@H]1CN(Cc2nc(C(F)(F)F)cc3c(-c4cccc([C@H](c5nncn5C)C5CCC5)c4)n[nH]c23)CCO1` [Example C113, 3-{3-[(R)-cyclobutyl(4-methyl-4H-1,2,4-triazol-3-yl)methyl]phenyl}-7-{[(2R)-2-methylmorpholin-4-yl]methyl}-5-(trifluoromethyl)-1H-pyrazolo[3,4-c]pyridine], the Kd in experiment [1] was 4.8 nM; in experiment [2] it was 83.6 nM. For the same molecule, the Ki was 233 nM in experiment [3] and 27.1 nM in experiment [4].

In the case of `Cn1cnnc1[C@@H](c1cccc(-c2n[nH]c3c(CN4CCC(F)(F)C4)nc(C(F)(F)F)cc23)c1)C1CCC1` [Example C114, 3-{3-[(R)-cyclobutyl(4-methyl-4H-1,2,4-triazol-3-yl)methyl]phenyl}-7-[(3,3-difluoropyrrolidin-1-yl)methyl]-5-(trifluoromethyl)-1H-pyrazolo[3,4-c]pyridine], the Kd was determined as 10.8 nM in experiment [1] and 278 nM in experiment [2]. The results for the Ki in experiment [3] and in experiment [4] were 1070 nM and 87.9 nM, respectively.

`Cn1cnnc1[C@@H](c1cccc(-c2n[nH]c3c(CN4CC(F)(F)C4)nc(C(F)(F)F)cc23)c1)C1CCC1` [Example C115, 3-{3-[(R)-cyclobutyl(4-methyl-4H-1,2,4-triazol-3-yl)methyl]phenyl}-7-[(3,3-difluoroazetidin-1-yl)methyl]-5-(trifluoromethyl)-1H-pyrazolo[3,4-c]pyridine]: the Kd in experiment [1] was determined as 9.2 nM; in experiment [2], 195 nM. Further, the inhibition constant Ki was found to be 1020 nM in experiment [3] and 73.8 nM in experiment [4].

Take `Cn1cnnc1[C@@H](c1cccc(-c2n[nH]c3c(CN[C@H]4C[C@H](O)C4)nc(C(F)(F)F)cc23)c1)C1CCC1` [Example C119, (1r,3r)-3-({[3-{3-[(R)-cyclobutyl(4-methyl-4H-1,2,4-triazol-3-yl)methyl]phenyl}-5-(trifluoromethyl)-1H-pyrazolo[3,4-c]pyridin-7-yl]methyl}amino)cyclobutan-1-ol]: the Kd in experiment [1] is 21.9 nM; in experiment [2] it was 254 nM. Moreover, the Ki in experiment [3] was 220 nM; in experiment [4], 28.7 nM.

With `Cn1cnnc1[C@@H](c1cccc(-c2n[nH]c3c(CN[C@H]4C[C@@H](O)C4)nc(C(F)(F)F)cc23)c1)C1CCC1` [Example C120, (1s,3s)-3-({[3-{3-[(R)-cyclobutyl(4-methyl-4H-1,2,4-triazol-3-yl)methyl]phenyl}-5-(trifluoromethyl)-1H-pyrazolo[3,4-c]pyridin-7-yl]methyl}amino)cyclobutan-1-ol], the results for the Kd in experiment [1] and in experiment [2] were 11.1 nM and 156 nM, respectively. The Ki was found to be 105 nM in experiment [3] and 13.6 nM in experiment [4].

On to `Cn1cnnc1[C@@H](c1cccc(-c2n[nH]c3c(CN[C@@H]4CCC[C@H]4O)nc(C(F)(F)F)cc23)c1)C1CCC1` [Example C121, (1R,2R)-2-({[3-{3-[(R)-cyclobutyl(4-methyl-4H-1,2,4-triazol-3-yl)methyl]phenyl}-5-(trifluoromethyl)-1H-pyrazolo[3,4-c]pyridin-7-yl]methyl}amino)cyclopentan-1-ol], for which the Kd in experiment [1] stood at 3.3 nM; in experiment [2], 113 nM. Besides, the results for the Ki in experiment [3] and in experiment [4] were 111 nM and 18.9 nM, respectively.

Take `Cn1cnnc1[C@@H](c1cccc(-c2n[nH]c3c(CN[C@H]4CCC[C@H]4O)nc(C(F)(F)F)cc23)c1)C1CCC1` [Example C122, (1R,2S)-2-({[3-{3-[(R)-cyclobutyl(4-methyl-4H-1,2,4-triazol-3-yl)methyl]phenyl}-5-(trifluoromethyl)-1H-pyrazolo[3,4-c]pyridin-7-yl]methyl}amino)cyclopentan-1-ol]: the Kd stood at 5.5 nM in experiment [1] and 146 nM in experiment [2]. Further, the Ki in experiment [3] came to 294 nM; in experiment [4], 29.2 nM.

Turning to `Cn1cnnc1[C@@H](c1cccc(-c2n[nH]c3c(CN[C@@H]4CC[C@H](O)C4)nc(C(F)(F)F)cc23)c1)C1CCC1` [Example D34], the values for the Kd in experiment [1] and in experiment [2] were 1.8 nM and 101 nM, respectively. Also, the Ki in experiment [3] came out at 59.9 nM; in experiment [4], 6.5 nM.

Regarding `Cn1cnnc1[C@@H](c1cccc(-c2n[nH]c3c(CN[C@@H]4CC[C@@H](O)C4)nc(C(F)(F)F)cc23)c1)C1CCC1` [Example D35], the equilibrium dissociation constant (Kd) in experiment [1] was 4.4 nM; in experiment [2], 152 nM. Also, the Ki in experiment [3] came out at 100 nM; in experiment [4], 12.9 nM.

In the case of `CC(C)NCc1nc(C(F)(F)F)cc2c(-c3cccc([C@H](c4nncn4C)C4CCC4)c3)n[nH]c12` [Example D80], the Kd in experiment [1] came to 9.5 nM; in experiment [2], 306 nM. Moreover, the results for the Ki in experiment [3] and in experiment [4] were 181 nM and 23 nM, respectively.

Regarding `CCNCc1nc(C(F)(F)F)cc2c(-c3cccc([C@H](c4nncn4C)C4CCC4)c3)n[nH]c12` [Example D81], the Kd in experiment [1] came to 5.6 nM; in experiment [2], 206 nM. Further, the Ki in experiment [3] came to 191 nM; in experiment [4], 25.7 nM.

As for `CN(C)Cc1nc(C(F)(F)F)cc2c(-c3cccc([C@H](c4nncn4C)C4CCC4)c3)n[nH]c12` [Example D82], the values for the Kd in experiment [1] and in experiment [2] were 8.7 nM and 213 nM, respectively. Further, the Ki in experiment [3] is 258 nM; in experiment [4] it was 32.5 nM.

Consider `Cn1cnnc1[C@@H](c1cccc(-c2n[nH]c3c(CN4CCC4)nc(C(F)(F)F)cc23)c1)C1CCC1` [Example D83], for which the Kd was determined as 7.6 nM in experiment [1] and 177 nM in experiment [2]. In addition, the Ki is 198 nM in experiment [3] and 27.7 nM in experiment [4].

Consider `Cn1cnnc1[C@@H](c1cccc(-c2n[nH]c3c(CN4CCNCC4)nc(C(F)(F)F)cc23)c1)C1CCC1` [Example D84], for which the Kd is 5.6 nM in experiment [1] and 148 nM in experiment [2]. Also, the inhibition constant (Ki) in experiment [3] was 144 nM; in experiment [4], 21.9 nM.

In the case of `Cn1cnnc1[C@@H](c1cccc(-c2n[nH]c3c(CNC4CCOCC4)nc(C(F)(F)F)cc23)c1)C1CCC1` [Example D85], the Kd in experiment [1] amounted to 6.9 nM; in experiment [2], 241 nM. In addition, the figures for the Ki in experiment [3] and in experiment [4] were 237 nM and 23.4 nM, respectively.

Regarding `Cn1cnnc1[C@@H](c1cccc(-c2n[nH]c3c(CN[C@H]4CC[C@H](O)C4)nc(C(F)(F)F)cc23)c1)C1CCC1` [Example D86], the Kd was found to be 6.4 nM in experiment [1] and 161 nM in experiment [2]. The Ki was determined as 106 nM in experiment [3] and 16.1 nM in experiment [4].

For `Cn1cnnc1[C@@H](c1cccc(-c2n[nH]c3c(CN[C@H]4CC[C@@H](O)C4)nc(C(F)(F)F)cc23)c1)C1CCC1` [Example D87], the Kd came out at 4.8 nM in experiment [1] and 128 nM in experiment [2]. For the same molecule, the inhibition constant Ki was found to be 112 nM in experiment [3] and 12.2 nM in experiment [4].

Take `Cn1cnnc1[C@@H](c1cccc(-c2n[nH]c3c(CN4CCCC4)nc(C(F)(F)F)cc23)c1)C1CCC1` [Example D94]: the Kd came out at 5.5 nM in experiment [1] and 163 nM in experiment [2]. In addition, the inhibitory constant (Ki) was 192 nM in experiment [3] and 29.2 nM in experiment [4].

One may read the Kd as the free concentration of one partner at which half of the binding sites on the other are occupied at equilibrium, for simple one-to-one binding. In general, Ki refers to the dissociation constant of the complex between target and ligand, obtained from inhibition or displacement.
